# What was measured:
# [1] = tested on: male Sprague-Dawley rats given hexachlorophene (brain water and electrolyte contents); assay: Protective effect against hexachlorophene intoxication (Experiment 2, Table II); assay type: in vivo, rat (Sprague-Dawley); details: hexachlorophene i.p.
# Procedure: In another experiment, male Sprague-Dawley rats (200-250 g body weight) receive intraperitoneal injections of 20 mg/kg hexachlorophene (suspended in 0.2% agar) for 2 days and only 10 mg/kg on the 3rd day. The test substances are administered orally after administration of hexachlorophene.
# The control animals receive only 0.2% agar i.p. or tap water orally. On the 4th day, the animals are sacrificed and the water and electrolyte contents in the brain are determined. The body weight of the animals is measured daily throughout the 4 days.
# [2] = tested on: male Sprague-Dawley rats given triethyltin chloride (brain water and electrolyte contents); assay: Protective effect against triethyltin chloride (TET) intoxication (Experiment 1, Table I); assay type: in vivo, rat (Sprague-Dawley); details: for Brain % water / Brain K^+ / Brain Na^+ / Brain Na^+ /K^+ / Mean body weight, 14 days / Mean body weight, initial: TET 0.002%
# Procedure: Male Sprague-Dawley rats (200-300 g body weight) are offered an aqueous solution containing 0.002 per cent triethyltin chloride (abbreviated to TET) as drinking liquid for 14 days. Control animals received water. The Gingko biloba monoextract (EGB) with or without bilobalide and the various test substances are administered orally 1×daily throughout these 14 days. On day 15, the animals are sacrificed, the brain is removed and its water and electrolyte contents are determined. The body weight of the animals during the experiment is checked daily.
# [3] = tested on: Monilia fructicola; details: cited from earlier work
# [4] = tested on: Penicillium glaucum; details: cited from earlier work
# [5] = tested on: existent neuropathies, neurological and mental functions; assay: Clinical investigations; assay type: in vivo
# [6] = tested on: Escherichia coli; details: cited from earlier work
# [7] = tested on: cholinergic mechanisms of the central nervous system; assay: Stimulating effect on cholinergic mechanisms of the central nervous system; details: in vivo
# Procedure: The stimulating effects of the extract on the cholinergic system of the central nervous system were determined in various experiments. In one of these experiments the influence of the extract on the spontaneous climbing behaviour (SCB) was examined according to the method described by Marcais et al. (Psychopharmacology; 56, 233-234, 1978).
# [8] = tested on: mouse ear; details: cited from earlier work
# [9] = tested on: neuropathy on the triethyltin chloride model; assay: Protective action against TET-induced neuropathy, hotplate test (Experiment 4, Table III); assay type: in vivo, rat (Sprague-Dawley); details: TET 0.002%
# Procedure: The investigations of the protective action against damage to myelin and its expression as neuropathy is likewise carried out on the triethyltin chloride model. When the animals are treated not for 14 days but for only 6 days with a 0.002 per cent TET solution administered in place of the drinking water, they show various signs of neuropathy although no cerebral oedema is detectable in this period. The neuropathy is quantified by measuring the consumption of food and water and by the changes in body weight. In addition, as a specific parameter, the pain reaction time in a hotplate test (at 50° C.) is measured (J. Pharm. Pharmacol., 9 (1957), 381).
# [10] = tested on: neuropathy on the triethyltin chloride model; assay: Curative action on TET-induced neuropathy, hotplate test (Experiment 5, Table IV); assay type: in vivo, rat (Sprague-Dawley); details: for Body weight after intoxication / Food consumption after intoxication / Hotplate reaction time after intoxication / Water consumption after intoxication: after 6 days TET, before treatment
# Procedure: In a similar manner, the curative action of bilobalid or extract containing bilobalide is investigated. The animals are offered a 0.002 per cent TET solution in place of drinking water for 6 days. Subsequently (from the 7th day), the TET solution is replaced by tap water and, simultaneously, the daily oral treatment is started. Treatment is continued for 6 days. The measured parameters (body weight, consumption of food and water, hotplate reaction time) are determined on the 6th day before the treatment and on the 14th day after the treatment.
# [11] = tested on: neuropathy on the triethyltin chloride model; assay: Protective action against TET-induced neuropathy, hotplate test (Experiment 4, Table III); assay type: in vivo, rat (Sprague-Dawley); details: overall conclusion of Experiments 1 to 5
# [12] = 5 mg/kg p.o. daily 6 days after TET
# [13] = 10 mg/kg p.o. daily 6 days after TET
smiles,measurement,setting,value
"CC(C)(C)C1(O)CC2OC(=O)CC23C(=O)OC2OC(=O)C(O)C231 (centres unmarked) [Bilobalide, bilobalide]","Mean body weight, 4th day",[1]; 5 mg/kg p.o.,270 g
same,Brain % water,"[1]; 5 mg/kg p.o., 4th day",77.93 ± 0.17%
same,Brain K^+,"[1]; 5 mg/kg p.o., 4th day",414.5 ± 4.4 mmol/kg dry weight
same,Brain Na^+,"[1]; 5 mg/kg p.o., 4th day",187.9 ± 4.0 mmol/kg dry weight
same,Brain Na^+ /K^+,"[1]; 5 mg/kg p.o., 4th day",0.45 ± 0.01
same,"Mean body weight, initial","[1]; 5 mg/kg p.o., initial",264 g
same,protection from cerebral oedema and reduction in body weight,[1]; oral,protects the animals from the development of cerebral oedema and prevents the reduction in body weight
same,Brain % water,[2]; 5 mg/kg p.o. 1×daily 14 days,78.57 ± 0.19%
same,Brain K^+,[2]; 5 mg/kg p.o. 1×daily 14 days,418.9 ± 14.4 mmol/kg dry weight
same,Brain Na^+,[2]; 5 mg/kg p.o. 1×daily 14 days,162.6 ± 5.4 mmol/kg dry weight
same,Brain Na^+ /K^+,[2]; 5 mg/kg p.o. 1×daily 14 days,0.39 ± 0.020
same,"Mean body weight, 14 days",[2]; 5 mg/kg p.o. 1×daily 14 days,323 g
same,"Mean body weight, initial",[2]; 5 mg/kg p.o. 1×daily,288 g
same,Brain % water,[2]; 10 mg/kg p.o. 1×daily 14 days,78.16 ± 0.09%
same,Brain K^+,[2]; 10 mg/kg p.o. 1×daily 14 days,452.7 ± 12.9 mmol/kg dry weight
same,Brain Na^+,[2]; 10 mg/kg p.o. 1×daily 14 days,198.3 ± 2.74 mmol/kg dry weight
same,Brain Na^+ /K^+,[2]; 10 mg/kg p.o. 1×daily 14 days,0.44 ± 0.04
same,"Mean body weight, 14 days",[2]; 10 mg/kg p.o. 1×daily 14 days,318 g
same,"Mean body weight, initial",[2]; 10 mg/kg p.o. 1×daily,272 g
same,Brain % water,[2]; 20 mg/kg p.o. 1×daily 14 days,77.75 ± 0.11%
same,Brain K^+,[2]; 20 mg/kg p.o. 1×daily 14 days,400.6 mmol/kg dry weight
same,Brain Na^+,[2]; 20 mg/kg p.o. 1×daily 14 days,187.9 ± 10.4 mmol/kg dry weight
same,Brain Na^+ /K^+,[2]; 20 mg/kg p.o. 1×daily 14 days,0.45 ± 0.05
same,"Mean body weight, 14 days",[2]; 20 mg/kg p.o. 1×daily 14 days,325 g
same,"Mean body weight, initial",[2]; 20 mg/kg p.o. 1×daily,288 g
same,protective effect against decrease in body weight and increase in brain water and Na^+,"[2]; oral, TET 14 days",good protective effect
same,fungicidal action,[3],no fungicidal action
same,fungicidal action,[4],no fungicidal action
same,"effects on existent neuropathies, neurological and mental functions",[5],"favourable effects on existent neuropathies, neurological and mental functions"
same,bactericidal action,[6],nor any bactericidal action
same,stimulating effect on cholinergic mechanisms of the central nervous system,[7],stimulating effect on the cholinergic mechanisms of the central nervous system
same,inflammatory action,[8],no inflammatory action
same,"Food consumption, final",[9]; 10 mg/kg/day p.o. 6 days,22.1 g/animal/day
same,"Mean body weight, final",[9]; 10 mg/kg/day p.o. 6 days,261 g
same,"Water consumption, final",[9]; 10 mg/kg/day p.o. 6 days,21.9 ml/animal/day
same,"Hotplate reaction time, final","[9]; 10 mg/kg/day p.o. 6 days, 50° C.",17.9 s
same,"Hotplate reaction time, initial","[9]; 10 mg/kg/day p.o., 50° C., initial",28.9 s
same,"Food consumption, initial","[9]; 10 mg/kg/day p.o., initial",24.3 g/animal/day
same,"Mean body weight, initial","[9]; 10 mg/kg/day p.o., initial",241 g
same,"Water consumption, initial","[9]; 10 mg/kg/day p.o., initial",35.1 ml/animal/day
same,protective action against neuropathic signs,"[9]; oral, 6 days",good protective action against the neuropathic signs
same,Body weight after treatment,[10]; [12],242 g
same,Food consumption after treatment,[10]; [12],17.4 g/animal/day
same,Hotplate reaction time after treatment,[10]; [12],61.58 s
same,Water consumption after treatment,[10]; [12],31.4 ml/animal/day
same,Body weight after intoxication,[10]; 5 mg/kg p.o. group,236 g
same,Food consumption after intoxication,[10]; 5 mg/kg p.o. group,10.4 g/animal/day
same,Hotplate reaction time after intoxication,[10]; 5 mg/kg p.o. group,88.1 ± 5.67 s
same,Water consumption after intoxication,[10]; 5 mg/kg p.o. group,11.4 ml/animal/day
same,Body weight after treatment,[10]; [13],232 g
same,Food consumption after treatment,[10]; [13],18.6 g/animal/day
same,Hotplate reaction time after treatment,[10]; [13],48.58 ± 18.44 s
same,Water consumption after treatment,[10]; [13],23.1 ml/animal/day
same,Body weight after intoxication,[10]; 10 mg/kg p.o. group,227 g
same,Food consumption after intoxication,[10]; 10 mg/kg p.o. group,8.9 g/animal/day
same,Hotplate reaction time after intoxication,[10]; 10 mg/kg p.o. group,87.36 ± 7.46 s
same,Water consumption after intoxication,[10]; 10 mg/kg p.o. group,12.7 ml/animal/day
same,regression of pre-existent damage,[10]; overall conclusion,pre-existent damage can be made to regress more quickly
same,prevention of neurotoxic signs and of cerebral oedema,[11],prevents the occurrence of neurotoxic signs and of cerebral oedema

# Source: patent US4892883A, “Pharmaceutical compositions containing bilobalide for the treatment of neuropathies Ai” (Willman - Schwabe GmbH & Co., priority 1973, dated 1990)
